Experiments:
Format in all cases: functional
CCRF-CEM = assay: Antiproliferative activity against human CCRF-CEM cells assessed as inhibition of cell growth at 10 uM measured after 48 hrs by SRB assay relative to control; conditions: read-out: GI
HL-60(TB) [1] = assay: Antiproliferative activity against human HL-60(TB) cells assessed as inhibition of cell growth at 10 uM measured after 48 hrs by SRB assay relative to control; conditions: HL-60, 48 h, read-out: GI
NCI-H522 = assay: Antiproliferative activity against human NCI-H522 cells assessed as inhibition of cell growth at 10 uM measured after 48 hrs by SRB assay relative to control; conditions: NCI-H522, 48 h, read-out: GI
HCT-116 [2] = assay: Antiproliferative activity against human HCT116 cells assessed as inhibition of cell growth at 10 uM measured after 48 hrs by SRB assay relative to control; conditions: HCT-116, 48 h, read-out: GI
HCT-15 = assay: Antiproliferative activity against human HCT15 cells assessed as inhibition of cell growth at 10 uM measured after 48 hrs by SRB assay relative to control; conditions: HCT-15, 48 h, read-out: GI
HT-29 = assay: Antiproliferative activity against human HT-29 cells assessed as inhibition of cell growth at 10 uM measured after 48 hrs by SRB assay relative to control; conditions: HT-29, 48 h, read-out: GI
SW-620 [3] = assay: Antiproliferative activity against human SW620 cells assessed as inhibition of cell growth at 10 uM measured after 48 hrs by SRB assay relative to control; conditions: SW-620, 48 h, read-out: GI
SF-295 = assay: Antiproliferative activity against human SF295 cells assessed as inhibition of cell growth at 10 uM measured after 48 hrs by SRB assay relative to control; conditions: SF-295, 48 h, read-out: GI
SNB-75 = assay: Antiproliferative activity against human SNB75 cells assessed as inhibition of cell growth at 10 uM measured after 48 hrs by SRB assay relative to control; conditions: SNB-75, 48 h, read-out: GI
UACC-62 = assay: Antiproliferative activity against human UACC62 cells assessed as inhibition of cell growth at 10 uM measured after 48 hrs by SRB assay relative to control; conditions: UACC-62, 48 h, read-out: GI
OVCAR-3 = assay: Antiproliferative activity against human OVCAR3 cells assessed as inhibition of cell growth at 10 uM measured after 48 hrs by SRB assay relative to control; conditions: OVCAR-3, 48 h, read-out: GI
NCI/ADR-RES = assay: Antiproliferative activity against human NCI-ADR-RES cells assessed as inhibition of cell growth at 10 uM measured after 48 hrs by SRB assay relative to control; conditions: read-out: GI
A498 = assay: Antiproliferative activity against human A498 cells assessed as inhibition of cell growth at 10 uM measured after 48 hrs by SRB assay relative to control; conditions: A498, 48 h, read-out: GI
ACHN = assay: Antiproliferative activity against human ACHN cells assessed as inhibition of cell growth at 10 uM measured after 48 hrs by SRB assay relative to control; conditions: read-out: GI
CAKI-1 [4] = assay: Antiproliferative activity against human CAKI-1 cells assessed as inhibition of cell growth at 10 uM measured after 48 hrs by SRB assay relative to control; conditions: CAKI-1, 48 h, read-out: GI
PC-3 [5] = assay: Antiproliferative activity against human PC3 cells assessed as inhibition of cell growth at 10 uM measured after 48 hrs by SRB assay relative to control; conditions: PC-3, 48 h, read-out: GI
HL-60(TB) [6] = assay: Antiproliferative activity against human HL-60(TB) cells assessed as inhibition of cell growth measured after 48 hrs by SRB assay; conditions: HL-60, 48 h
K562 = assay: Antiproliferative activity against human K562 cells assessed as inhibition of cell growth measured after 48 hrs by SRB assay; conditions: K562, 48 h
MOLT-4 = assay: Antiproliferative activity against human MOLT4 cells assessed as inhibition of cell growth measured after 48 hrs by SRB assay; conditions: MOLT-4, 48 h
A549 = assay: Antiproliferative activity against human A549 cells assessed as inhibition of cell growth measured after 48 hrs by SRB assay; conditions: A549, 48 h
EKVX = assay: Antiproliferative activity against human EKVX cells assessed as inhibition of cell growth measured after 48 hrs by SRB assay
HOP-62 = assay: Antiproliferative activity against human HOP62 cells assessed as inhibition of cell growth measured after 48 hrs by SRB assay; conditions: HOP-62, 48 h
NCI-H322M = assay: Antiproliferative activity against human NCI-H322M cells assessed as inhibition of cell growth measured after 48 hrs by SRB assay
HCC 2998 = assay: Antiproliferative activity against human HCC2998 cells assessed as inhibition of cell growth measured after 48 hrs by SRB assay; conditions: HCC 2998, 48 h
HCT-116 [7] = assay: Antiproliferative activity against human HCT116 cells assessed as inhibition of cell growth measured after 48 hrs by SRB assay; conditions: HCT-116, 48 h
KM12 = assay: Antiproliferative activity against human KM12 cells assessed as inhibition of cell growth measured after 48 hrs by SRB assay; conditions: KM12, 48 h
SW-620 [8] = assay: Antiproliferative activity against human SW620 cells assessed as inhibition of cell growth measured after 48 hrs by SRB assay; conditions: SW-620, 48 h
U-251 = assay: Antiproliferative activity against human U251 cells assessed as inhibition of cell growth measured after 48 hrs by SRB assay; conditions: U-251, 48 h
LOX IMVI = assay: Antiproliferative activity against human LOXIMVI cells assessed as inhibition of cell growth measured after 48 hrs by SRB assay
M14 = assay: Antiproliferative activity against human M14 cells assessed as inhibition of cell growth measured after 48 hrs by SRB assay; conditions: M14, 48 h
MDA-MB-435 = assay: Antiproliferative activity against human MDA-MB-435 cells assessed as inhibition of cell growth measured after 48 hrs by SRB assay; conditions: MDA-MB-435, 48 h
SK-OV-3 = assay: Antiproliferative activity against human SKOV3 cells assessed as inhibition of cell growth measured after 48 hrs by SRB assay; conditions: SK-OV-3, 48 h
CAKI-1 [9] = assay: Antiproliferative activity against human CAKI-1 cells assessed as inhibition of cell growth measured after 48 hrs by SRB assay; conditions: CAKI-1, 48 h
PC-3 [10] = assay: Antiproliferative activity against human PC3 cells assessed as inhibition of cell growth measured after 48 hrs by SRB assay; conditions: PC-3, 48 h
MDA-MB-231 = assay: Antiproliferative activity against human MDA-MB-231 cells assessed as inhibition of cell growth measured after 48 hrs by SRB assay; conditions: MDA-MB-231, 48 h
BT-549 = assay: Antiproliferative activity against human BT549 cells assessed as inhibition of cell growth measured after 48 hrs by SRB assay; conditions: BT-549, 48 h

Row | Structure (SMILES) | inhibition of growth at 10 µM (CCRF-CEM) [%] | inhibition of growth at 10 µM (HL-60(TB) [1]) [%] | inhibition of growth at 10 µM (NCI-H522) [%] | inhibition of growth at 10 µM (HCT-116 [2]) [%] | inhibition of growth at 10 µM (HCT-15) [%] | inhibition of growth at 10 µM (HT-29) [%] | inhibition of growth at 10 µM (SW-620 [3]) [%] | inhibition of growth at 10 µM (SF-295) [%] | inhibition of growth at 10 µM (SNB-75) [%] | inhibition of growth at 10 µM (UACC-62) [%] | inhibition of growth at 10 µM (OVCAR-3) [%] | inhibition of growth at 10 µM (NCI/ADR-RES) [%] | inhibition of growth at 10 µM (A498) [%] | inhibition of growth at 10 µM (ACHN) [%] | inhibition of growth at 10 µM (CAKI-1 [4]) [%] | inhibition of growth at 10 µM (PC-3 [5]) [%] | GI50 (HL-60(TB) [6]) [µM] | GI50 (K562) [µM] | GI50 (MOLT-4) [µM] | GI50 (A549) [µM] | further results
1 | O=C1CC(c2ccccc2)Cc2nc3ccc(Br)cc3cc21 (stereo not drawn) | 91.5 | 128 | 104 | 94.4 | 84 | 97.8 | 74.9 | 82.8 | 63.4 | 63.8 | 128 | 82.9 | 112 | 65.7 | 69.3 | 68 | 0.214 | 0.175 | 0.0537 | 0.419 | GI50 (EKVX): 0.756 µM; GI50 (HOP-62): 0.354 µM; GI50 (NCI-H322M): 0.623 µM; GI50 (HCC 2998): 2.58 µM; GI50 (HCT-116 [7]): 0.0515 µM; GI50 (KM12): 0.341 µM; GI50 (SW-620 [8]): 0.36 µM; GI50 (U-251): 0.553 µM; GI50 (LOX IMVI): 0.707 µM; GI50 (M14): 0.0505 µM; GI50 (MDA-MB-435): 0.0271 µM; GI50 (SK-OV-3): 0.611 µM; GI50 (CAKI-1 [9]): 0.207 µM; GI50 (PC-3 [10]): 0.254 µM; GI50 (MDA-MB-231): 0.598 µM; GI50 (BT-549): 0.685 µM
2 | COc1ccc2nc3c(cc2c1)C(=O)CC(C(F)(F)F)C3 (stereo not drawn) | 90.1 | 115 | 68.1 | 88.1 | 62.2 | 89.1 | 58.5 | 54.7 | 92.1 | 60.2 | 94.7 | 81.1 | 108 | 50.8 | 63 | 67 | 0.325 | 0.437 | 0.0882 | 3.03 | GI50 (EKVX): 4.19 µM; GI50 (HOP-62): 3.61 µM; GI50 (NCI-H322M): 1.32 µM; GI50 (HCT-116 [7]): 0.133 µM; GI50 (KM12): 0.316 µM; GI50 (SW-620 [8]): 3.45 µM; GI50 (LOX IMVI): 3.08 µM; GI50 (M14): 0.238 µM; GI50 (MDA-MB-435): 0.143 µM; GI50 (CAKI-1 [9]): 0.69 µM; GI50 (PC-3 [10]): 0.835 µM; GI50 (MDA-MB-231): 3.98 µM

From ChEMBL document CHEMBL4627344, “Synthesis, biological evaluation and virtual screening of some acridone derivatives as potential anticancer agents” (2020)
